Test results as given in PubChem BioAssay (NCI).
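Assay format: 96-well plates, 48-hour exposure. TGI: concentration producing complete growth inhibition.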

Experiments:
Test in all cases: DTP human tumour cell line panel, 48 h
[1] = system: SK-MEL-28 melanoma
[2] = system: SNB-75 CNS
[3] = system: SNB-19 CNS
[4] = system: COLO 205 colon
[5] = system: RPMI-8226 leukemia
[6] = system: HOP-62 NSCLC
[7] = system: HT29 colon
[8] = system: RXF 393 renal
[9] = system: UO-31 renal
[10] = system: SR leukemia
[11] = system: LOX IMVI melanoma

Row | Structure (SMILES) | TGI [1] | TGI [2] | TGI [3] | TGI [4] | TGI [5] | TGI [6] | TGI [7] | TGI [8] | TGI [9] | TGI [10] | TGI [11]
1 | O=C1CC(c2cccc([N+](=O)[O-])c2)C2(C(=O)NC(=O)NC2=O)C(c2cccc([N+](=O)[O-])c2)C1 (stereo unspecified) | > 100 µM | > 100 µM | > 100 µM | > 100 µM | > 100 µM | > 100 µM | > 100 µM | 61.1 µM | > 100 µM | > 100 µM | > 100 µM
2 | CCOC(=O)c1c(N2CCOCC2)[nH]c(=O)c(C(c2c(Cl)cccc2Cl)c2c(O)c(C(=O)OCC)c(N3CCOCC3)[nH]c2=O)c1O | 4.19 µM | 15.6 µM | 21.1 µM | 14.9 µM | 5.27 µM | 30.4 µM | 12.9 µM | 4.93 µM | 6.37 µM | 15.9 µM | 9.08 µM
3 | CO/C=C(/C(=O)OC)c1ccccc1COc1cccc(C(F)(F)F)c1 | > 100 µM | 64.8 µM | > 100 µM | 28.5 µM | 7.31 µM | > 100 µM | > 100 µM | 78.3 µM | 77 µM | > 100 µM | 13.6 µM
4 | CCOC(=O)c1cn2c(n1)sc1cc(Cl)ccc12 | > 100 µM | > 100 µM | 83.2 µM | 60.8 µM | > 100 µM | 61.6 µM | > 100 µM | > 100 µM | > 100 µM | > 100 µM | > 100 µM
5 | O=C(Nc1nnc(-c2ccc(Cl)cc2)o1)C(SC(=S)N1CCOCC1)c1ccccc1 (stereo unspecified) | > 100 µM | > 100 µM | > 100 µM | 28.8 µM | > 100 µM | > 100 µM | 78.3 µM | > 100 µM | 30 µM | > 100 µM | 48.2 µM
6 | CCCCCCCCCCCC(=O)OCC(C[As](=O)(O)O)OC(=O)CCCCCCCCCCC (stereo unspecified) | 10.1 µM | 21.1 µM | 9.38 µM | 25.4 µM | > 62 µM | 78 µM | 20.2 µM | 5.86 µM | 17.4 µM | 51.4 µM | 18.3 µM
